Patent US9212139B2, “Aryl substituted indoles and their use as blockers of sodium channels” (Purdue Pharma, L.P., priority 2010, dated 2015)

Assays:
[1] = biological target: human Nav1.7 (Homo sapiens (Human), UniProt Q15858); test: FLIPR or FLIPR TETRA sodium dye assay with KCl and test article pre-incubation; format: cell-based; conditions: sodium dye assay with KCl; recombinant human Nav1.7 in HEK293 cells; value ± SEM
Source text: For dominant selection of the Nav1.7-expressing clones, the expression plasmid co-expressed the neomycin resistance gene. […] Recombinant beta and gamma subunits were not introduced into this cell line. Additional cell lines expressing recombinant Nav1.7 cloned from other species can also be used, alone or in combination with various beta subunits, gamma subunits or chaperones.
Cell maintenance: Unless otherwise noted, cell culture reagents were purchased from Mediatech of Herndon, Va. The recombinant Nav1.7/HEK293 cells were routinely cultured in growth medium consisting of Dulbecco's […] containing 10% fetal bovine serum (FBS, Hyclone, Thermo Fisher Scientific, Logan, Utah), 100 U/mL penicillin, […], 2-4 mM L-glutamine, and […]. For natural, non-recombinant cell lines, the selective antibiotic was omitted, and additional media formulations can be applied as needed.
The intensity of this emission, but not the wavelength range, is increased when the dye is exposed to Na^+ ions, which it can bind with partial selectivity. Cells expressing Nav1.7 or other sodium channels were loaded with the CoroNa™ Green dye immediately in advance of the fluorescence assay, and then, after agonist stimulation, the mobilization of Na^+ ions was detected as the Na^+ ions flowed from the extracellular fluid into the cytoplasm through the activated sodium channel pores. The dye was stored in the dark as a lyophilized powder, and then an aliquot was dissolved immediately before the cell loading procedure, according to the instructions of the manufacturer to a stock concentration of 10 mM in DMSO. It was then diluted in the assay buffer to a 4× concentrated working solution, so that the final concentration of dye in the cell loading buffer was 5 μM.
These scorpion toxins inhibit the fast inactivation of their cognate target channels. Stock solutions of the agonists were prepared to 40 mM in DMSO (veratridine) and 1 mg/mL in dH2O (scorpion venom), and then diluted to make a 4× or 2× stock (depending on the particular assay) in assay buffer, the final concentration being 100 μM (veratridine) and 10 μg/mL (scorpion venom). Both of the agonists were purchased from Sigma Aldrich, St. Louis, Mo.
Test Compounds: Test compounds were dissolved in DMSO to yield 10 mM stock solutions. […] If a particular test article appeared to be especially potent, then the concentration curve was adjusted, e.g., to 10-fold lower concentrations, in order to perform the dose-response in a more relevant concentration range. Compound dilutions were added during the dye-loading and pre-stimulation step, and then again during the fluorescence assay, early in the kinetic read.
Data Analysis: The data were analyzed according to methods known to those skilled in the art or using the GraphPad® Prism 4.0 Program (available from GraphPad Software, San Diego, Calif.) to determine the IC50 value for the test article. At least one standard reference compound was evaluated during each experiment.
FLIPR® or FLIPR^TETRA® sodium dye assay with KCl and test article pre-incubation: Cells were prepared by plating the recombinant HEK293 cells or other host cells expressing either recombinant or non-recombinant, native, Nav1.7 alpha subunit, alone or in combination with various beta and gamma subunits at a density of ˜40,000 cells/well into a 96-well black, clear-bottom, PDL-coated plate. The assay can be adapted to 384-well or 1,536-well format, if desired, using proportionately less cells and media. […] For counter-screens of other voltage-gated sodium channels, the procedure was very similar, though optimal densities of cells, media and subsequent assay components can be fine-tuned for the particular cell line or isoform.

[2] = biological target: hNav1.7 (Homo sapiens (Human), UniProt Q15858); test: Electrophysiology (EP) assay, whole-cell patch clamp; format: cell-based; conditions: whole-cell patch clamp, hNav1.7 expressing HEK-293 cells; read-out: EP Nav1.7 Ki
Method: Cells: The hNav1.7 expressing HEK-293 cells were plated on 35 mm culture dishes pre-coated with poly-D-lysine in standard DMEM culture media (Mediatech, Inc., Herndon, Va.) and incubated in a 5% CO2 incubator at 37° C. Cultured cells were used approximately 12-48 hours after plating.
Electrophysiology: On the day of experimentation, the 35 mm dish was placed on the stage of an inverted microscope equipped with a perfusion system that continuously perfuses the culture dish with fresh recording media. A gravity driven superfusion system was used to apply test solutions directly to the cell under evaluation. This system consists of an array of glass pipette glass connected to a motorized horizontal translator. The outlet of the shooter was positioned approximately 100 μm from the cell of interest.
Gigaseals were formed and the whole-cell configuration was established in voltage clamp mode, and membrane currents generated by hNav1.7 were recorded in gap-free mode. […] Signals were sampled at 50 kHz and low pass filtered at 3 kHz.
The voltage clamp protocol to examine hNav1.7 currents was as follows. First, the standard current-voltage relationship was tested by pulsing the cell from the holding voltage (Vh) of −120 mV by a series of 5 msec long square-shaped test pulses incrementing in +10 mV steps over the membrane voltage range of −90 mV to +60 mV at the pace of stimulation of 0.5 Hz. This procedure determines the voltage that elicits the maximal current (Vmax). […] This procedure determines the voltage of full inactivation (Vfull). Third, the cell was repeatedly stimulated with the following protocol, first in the absence of the test compound then in its presence. The protocol consisted of depolarizing the cell from the holding potential of −120 mV to the Vfull value for 4.5 seconds then repolarizing the cell to the holding potential for 10 ms before applying the test pulse to the Vmax for 5 ms. The amount of inhibition produced by the test compound was determined by comparing the current amplitude elicited by the test pulse in the absence and presence of the compound.
Vehicle solution used to establish base line was also contacting 0.3% DMSO.
Data analysis: Data was analyzed off-line using Clampfit software (pClamp, v. 8; Axon Instruments) and graphed using GraphPad Prizm (v. 4.0) software.

[3] = system: spinal nerve ligation (SNL; Chung model of neuropathic pain); test: Mechanical hyperalgesia (paw withdrawal threshold) in the Chung spinal nerve ligation model; format: in vivo; conditions: rats, intraperitoneal (i.p.) administration, from 1 to 3 hours
Method: Test Animals: Each experiment uses rats weighing between 200-260 g at the start of the experiment. The rats are group-housed and have free access to food and water at all times, except prior to oral administration of a test compound when food is removed for 16 hours before dosing. A control group acts as a comparison to rats treated with a compound of Formulae I-XX. The control group is administered the carrier as used for the test compound. The volume of carrier administered to the control group is the same as the volume of carrier and test compound administered to the test group.
In the Chung model, the spinal nerve ligation model of neuropathic pain was used to produce mechanical hyperalgesia, thermal hyperalgesia and tactile allodynia in rats. […] The animals were assessed for response to noxious mechanical stimuli by determining PWT, as described below, prior to surgery (baseline), then immediately prior to and 1, 3, and 5 hours after being administered a compound of Formulae I-XX for the left rear paw of the animal. The animals can also be assessed for response to noxious thermal stimuli or for tactile allodynia, as described below. […]
Mechanical Hyperalgesia: Sensitivity to noxious mechanical stimuli can be measured in animals using the paw pressure test to assess mechanical hyperalgesia. […] PWT is determined once for each rat at each time point. […]

Sequence of human Nav1.7 (Q15858 other isoform, or with tags, fused parts or gaps): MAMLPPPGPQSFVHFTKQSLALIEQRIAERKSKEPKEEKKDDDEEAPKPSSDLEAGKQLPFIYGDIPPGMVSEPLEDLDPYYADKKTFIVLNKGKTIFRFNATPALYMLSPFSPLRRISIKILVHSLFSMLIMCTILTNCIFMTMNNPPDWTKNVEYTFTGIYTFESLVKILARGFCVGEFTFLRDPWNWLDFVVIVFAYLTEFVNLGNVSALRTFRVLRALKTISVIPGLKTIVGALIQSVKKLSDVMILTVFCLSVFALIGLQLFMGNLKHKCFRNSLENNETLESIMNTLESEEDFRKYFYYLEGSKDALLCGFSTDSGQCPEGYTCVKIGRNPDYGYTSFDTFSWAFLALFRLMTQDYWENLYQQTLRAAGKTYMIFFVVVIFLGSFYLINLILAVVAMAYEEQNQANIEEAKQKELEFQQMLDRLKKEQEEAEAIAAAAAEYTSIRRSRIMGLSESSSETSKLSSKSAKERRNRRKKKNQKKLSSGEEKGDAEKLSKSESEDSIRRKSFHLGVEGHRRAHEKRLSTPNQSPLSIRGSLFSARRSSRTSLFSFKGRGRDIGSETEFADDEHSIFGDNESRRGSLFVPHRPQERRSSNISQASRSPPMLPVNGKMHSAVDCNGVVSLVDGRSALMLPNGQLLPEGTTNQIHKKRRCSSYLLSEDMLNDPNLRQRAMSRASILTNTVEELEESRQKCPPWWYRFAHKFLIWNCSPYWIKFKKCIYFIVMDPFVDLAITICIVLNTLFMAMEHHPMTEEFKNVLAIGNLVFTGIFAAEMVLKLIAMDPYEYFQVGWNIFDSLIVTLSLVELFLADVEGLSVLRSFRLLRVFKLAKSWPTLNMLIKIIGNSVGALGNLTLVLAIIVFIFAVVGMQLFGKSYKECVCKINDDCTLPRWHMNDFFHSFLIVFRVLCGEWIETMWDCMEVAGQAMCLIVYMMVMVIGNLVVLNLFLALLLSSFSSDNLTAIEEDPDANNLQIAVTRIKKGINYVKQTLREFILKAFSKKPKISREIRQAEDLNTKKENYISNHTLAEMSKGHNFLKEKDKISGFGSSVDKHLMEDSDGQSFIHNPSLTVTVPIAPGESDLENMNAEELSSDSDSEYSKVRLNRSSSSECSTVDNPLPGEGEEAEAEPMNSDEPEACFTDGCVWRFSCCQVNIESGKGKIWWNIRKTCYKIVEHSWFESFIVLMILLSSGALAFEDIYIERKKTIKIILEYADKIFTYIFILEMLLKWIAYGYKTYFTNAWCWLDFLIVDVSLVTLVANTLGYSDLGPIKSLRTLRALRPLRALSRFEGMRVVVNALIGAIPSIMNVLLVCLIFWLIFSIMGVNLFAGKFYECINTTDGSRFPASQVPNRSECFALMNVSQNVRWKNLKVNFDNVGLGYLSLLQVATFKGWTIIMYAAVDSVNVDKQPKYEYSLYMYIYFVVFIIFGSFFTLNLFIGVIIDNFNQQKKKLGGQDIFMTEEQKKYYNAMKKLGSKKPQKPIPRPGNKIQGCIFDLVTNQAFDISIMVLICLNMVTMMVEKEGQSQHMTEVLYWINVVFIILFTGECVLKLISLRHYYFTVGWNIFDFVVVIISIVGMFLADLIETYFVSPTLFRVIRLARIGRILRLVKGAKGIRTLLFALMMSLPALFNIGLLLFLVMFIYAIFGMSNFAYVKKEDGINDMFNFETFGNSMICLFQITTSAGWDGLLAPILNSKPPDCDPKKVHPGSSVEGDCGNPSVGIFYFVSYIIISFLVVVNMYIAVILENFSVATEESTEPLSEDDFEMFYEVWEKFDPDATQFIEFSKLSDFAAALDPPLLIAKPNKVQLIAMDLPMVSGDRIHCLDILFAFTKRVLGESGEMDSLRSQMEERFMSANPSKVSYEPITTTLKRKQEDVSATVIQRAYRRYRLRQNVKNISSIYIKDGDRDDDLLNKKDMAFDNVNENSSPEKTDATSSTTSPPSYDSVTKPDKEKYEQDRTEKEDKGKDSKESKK
Sequence of hNav1.7 (Q15858 other isoform, or with tags, fused parts or gaps): as above

Structure (SMILES)	IC50 [1] [µM]	Ki [2] [nM]	reversal of mechanical hyperalgesia [3]
N#Cc1cc(Oc2ccc(-n3cc(C[C@H](N)CO)c4ccccc43)cc2)ccc1C(F)(F)F [Compound 47, (S)-5-{4-[3-(2-Amino-3-hydroxypropyl)-1H-indol-1-yl]phenoxy}-2-(trifluoromethyl)benzonitrile]	0.213 ± 0.052	160	10%-25%
N#Cc1cc(Oc2ccc(-n3cc(C(O)C(N)=O)c4ccccc43)cc2)ccc1C(F)(F)F (stereo not drawn) [Compound 60, 2-(1-(4-(3-Cyano-4-(trifluoromethyl)phenoxy)phenyl)-1H-indol-3-yl)-2-hydroxyacetamide]	0.224 ± 0.038	400	10%-25%
